# Reference: ChEMBL document CHEMBL1201862, “PubChem BioAssay data set” (2004)
# The source made the active and inactive calls.
# Assays:
# [1] = molecular target: Peroxisome proliferator-activated receptor gamma/Nuclear receptor coactivator 3 (Homo sapiens, UniProt P37231); experiment: (§1) TR-FRET dose response biochemical High Throughput Screening assay for agonists of the steroid receptor coactivator 3 (SRC-3) recruitment by the peroxisome proliferator-activated receptor gamma (PPAR gamma): non-selective agonists. [Related pubchem assays: 1301 (Confirmation screen.), 1048 (Primary screen.)]; format: functional
# [2] = molecular target: Peroxisome proliferator-activated receptor gamma/Nuclear receptor coactivator 1 (Homo sapiens, UniProt P37231); experiment: as §1, with “1 (SRC-1)” for “3 (SRC-3)”, “assays (depositor defined):AID1300, AID1808, AID504735, AID631]” for “assays: 1301 (Confirmation screen.), 1048 (Primary screen.)]”; format: protein assay
# [3] = molecular target: Peroxisome proliferator-activated receptor gamma/Nuclear receptor coactivator 2 (Homo sapiens, UniProt P37231); experiment: TR-FRET dose response biochemical High Throughput Screening assay for agonists of the steroid receptor coactivator 2 (SRC-2) recruitment by the peroxisome proliferator-activated receptor gamma (PPAR gamma): non-selective agonists. [Related pubchem assays: 1297, 1032 ]; format: functional
# [4] = A cytotoxicity screen of small molecule inhibitors of the PhoP region in Salmonella typhi identified in the primary screen. [Related pubchem assays: 1850, 1864, 1985 ]; format: functional
# BJ [5] = experiment: BJ-TERT fibroblast viability loss – cell-based, RAS-independent, luminescence, dose response (AID 1933); format: functional; conditions: Homo sapiens
# [6] = DRD fibroblast viability loss – cell-based, non-viral oncogenic, luminescence, dose response (AID 1934); format: functional; conditions: Homo sapiens
# BJ [7] = experiment: cells; format: functional, cell-based; conditions: Homo sapiens
# BJ [8] = experiment: BJ-TERT-LT-ST fibroblast viability loss – cell-based, RAS-independent, luminescence, dose response (AID 1935); format: functional; conditions: Homo sapiens;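 note: BJ fibroblasts immortalized with TERT plus LT and ST oncogenes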
# Cytochrome P450 2C19 = Cytochrome P450 2C19 (Homo sapiens, UniProt P33261); experiment: Cytochrome panel assay with activity outcomes. Panel member name: p450-cyp2c19 Compounds with AC50 equal or less than 10 uM are considered active; format: functional
# Cytochrome P450 3A4 = Cytochrome P450 3A4 (Homo sapiens, UniProt P08684);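 note: CYP3A4 tested as one member of a cytochrome P450 panel screen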
# [9] = molecular target: T1, Mannose-6-phosphate isomerase (Homo sapiens, UniProt P34949); experiment: MPI inhibition at elevated mannose 6-phosphate – biochemical, fluorescence intensity, high mannose 6-phosphate, primary screen (AID 1220)
# T1 sequence (P34949 whole entry): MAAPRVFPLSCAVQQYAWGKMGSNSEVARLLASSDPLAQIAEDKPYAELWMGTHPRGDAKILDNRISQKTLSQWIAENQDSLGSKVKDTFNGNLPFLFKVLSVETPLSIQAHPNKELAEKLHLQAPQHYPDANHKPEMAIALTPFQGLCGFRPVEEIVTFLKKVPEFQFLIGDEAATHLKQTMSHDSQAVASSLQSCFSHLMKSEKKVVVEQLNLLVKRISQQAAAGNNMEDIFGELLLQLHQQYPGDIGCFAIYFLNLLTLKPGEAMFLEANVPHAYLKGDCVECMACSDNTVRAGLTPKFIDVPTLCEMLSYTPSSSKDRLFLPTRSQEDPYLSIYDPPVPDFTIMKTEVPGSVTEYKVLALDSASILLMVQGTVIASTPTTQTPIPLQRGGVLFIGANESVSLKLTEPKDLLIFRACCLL
# [10] = molecular target: T2, Polyadenylate-binding protein 1 (Homo sapiens, UniProt P11940); experiment: MLLE binding blockers, Cy5 peptide tracer – biochemical, fluorescence polarization, Cy5-PAM2 peptide, secondary, miRNA deadenylation inhibitor project, dose response (AID 602260); format: functional; conditions: read-out: IC50_Mean
# [11] = molecular target: T2, Polyadenylate-binding protein 1; experiment: MLLE domain peptide-binding blockers, IC50 – biochemical, fluorescence polarization, FITC-PAM2 peptide, dose response (AID 602259); format: functional; conditions: read-out: IC50_Mean
# Prothrombin = Prothrombin (Homo sapiens, UniProt P00734); experiment: Thrombin 1536 HTS Dose Response Confirmation. [Related pubchem assays: 1046 (Thrombin 1536 HTS; hits were confirmed in this assay)]; format: functional
# Kallikrein-7 = Kallikrein-7 (Homo sapiens, UniProt P49862); experiment: Fluorescence Intensity-based biochemical primary high throughput dose response assay to identify activators of kallikrein-7 (K7) zymogen.
# [12] = off-target signal loss in HeLa-CEM21 co-culture – HeLa F-luc CTL cells, cherry-picked, counter-screen for HIV-1 Env fusion inhibitor project, dose response (AID 652040); format: functional, cell-based;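 note: potency for signal decrease marking cytotoxic or nonspecific inhibition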
# [13] = blockers of HIV-1 ZM109 envelope-driven cell-cell fusion – HeLa effector, CEM target cells, luciferase, cherry-pick, dose response (AID 652058); format: functional, cell-based;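 note: luciferase signal from HIV-1 Env mediated cell-cell fusion of effector and target cells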
# [14] = viability of uninfected HEp-2 cells – cell-based, HTS, cytotoxicity control for RSV inhibitor project, dose response (AID 2410); format: functional; conditions: human respiratory syncytial virus
# [15] = HIV-1 AD8 envelope cell-cell fusion blockers – cherry-pick, dose response (AID 652062); format: functional, cell-based;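 note: luciferase signal from cell-cell fusion driven by HIV-1 clade B AD8 Env; potency is for inhibitors of fusion seen as a drop in luminescence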
# [16] = blockers of HIV-1 envelope-mediated cell-cell fusion – cherry-pick, dose response (AID 652057); format: functional, cell-based
# INS1 = experiment: INS-1E survival protection against cytokine death – cell-based, luminescence, retest, dose response (AID 449756); format: functional; conditions: Rattus norvegicus;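 note: cell death triggered by IL-1 beta plus TNF-alpha plus IFN-gamma mixture; protective hits raise ATP signal compared with cytokine alone wells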
# Kallikrein-7, sequence (P49862 whole entry, the tested form may be a part): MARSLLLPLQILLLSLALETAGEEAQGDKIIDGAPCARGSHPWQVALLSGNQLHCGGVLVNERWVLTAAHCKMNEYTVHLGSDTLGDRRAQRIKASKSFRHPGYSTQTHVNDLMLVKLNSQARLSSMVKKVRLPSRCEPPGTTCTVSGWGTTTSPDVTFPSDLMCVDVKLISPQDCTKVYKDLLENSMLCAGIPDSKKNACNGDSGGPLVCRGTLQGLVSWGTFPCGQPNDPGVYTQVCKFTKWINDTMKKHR
# T2 sequence (P11940 whole entry, the tested form may be a part): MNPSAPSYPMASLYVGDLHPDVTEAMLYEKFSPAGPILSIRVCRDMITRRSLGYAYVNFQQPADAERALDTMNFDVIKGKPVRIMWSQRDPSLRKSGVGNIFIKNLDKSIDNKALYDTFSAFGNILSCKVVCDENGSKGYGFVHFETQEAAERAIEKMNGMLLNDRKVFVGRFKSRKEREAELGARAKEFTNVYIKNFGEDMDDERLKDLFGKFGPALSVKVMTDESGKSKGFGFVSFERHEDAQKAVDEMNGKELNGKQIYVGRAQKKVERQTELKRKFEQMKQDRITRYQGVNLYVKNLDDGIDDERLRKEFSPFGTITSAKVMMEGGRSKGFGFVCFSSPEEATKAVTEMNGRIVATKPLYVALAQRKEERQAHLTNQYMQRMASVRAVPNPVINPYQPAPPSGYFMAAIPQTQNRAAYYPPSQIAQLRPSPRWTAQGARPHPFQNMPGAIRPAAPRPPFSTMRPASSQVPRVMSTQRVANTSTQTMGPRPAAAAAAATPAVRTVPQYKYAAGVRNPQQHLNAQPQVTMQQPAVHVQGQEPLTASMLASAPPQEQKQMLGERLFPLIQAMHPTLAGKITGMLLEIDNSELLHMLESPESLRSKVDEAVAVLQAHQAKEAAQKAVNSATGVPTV
# Peroxisome proliferator-activated receptor gamma/Nuclear receptor coactivator 2, sequence (P37231 whole entry): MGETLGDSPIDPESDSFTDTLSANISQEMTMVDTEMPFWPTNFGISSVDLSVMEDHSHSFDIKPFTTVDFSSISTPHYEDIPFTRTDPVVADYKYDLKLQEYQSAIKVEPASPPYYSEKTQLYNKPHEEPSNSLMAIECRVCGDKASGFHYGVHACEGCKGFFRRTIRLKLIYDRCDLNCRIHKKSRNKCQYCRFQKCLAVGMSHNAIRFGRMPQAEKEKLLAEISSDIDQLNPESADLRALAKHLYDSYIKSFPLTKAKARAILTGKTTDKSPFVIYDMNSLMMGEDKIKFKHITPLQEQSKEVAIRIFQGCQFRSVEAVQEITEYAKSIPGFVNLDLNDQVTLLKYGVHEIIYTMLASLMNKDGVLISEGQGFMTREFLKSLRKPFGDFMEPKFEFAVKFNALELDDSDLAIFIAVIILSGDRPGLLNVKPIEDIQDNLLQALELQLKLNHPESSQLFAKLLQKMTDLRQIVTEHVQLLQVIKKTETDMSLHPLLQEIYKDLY
# Peroxisome proliferator-activated receptor gamma/Nuclear receptor coactivator 2, sequence (Q15596 whole entry, further chain): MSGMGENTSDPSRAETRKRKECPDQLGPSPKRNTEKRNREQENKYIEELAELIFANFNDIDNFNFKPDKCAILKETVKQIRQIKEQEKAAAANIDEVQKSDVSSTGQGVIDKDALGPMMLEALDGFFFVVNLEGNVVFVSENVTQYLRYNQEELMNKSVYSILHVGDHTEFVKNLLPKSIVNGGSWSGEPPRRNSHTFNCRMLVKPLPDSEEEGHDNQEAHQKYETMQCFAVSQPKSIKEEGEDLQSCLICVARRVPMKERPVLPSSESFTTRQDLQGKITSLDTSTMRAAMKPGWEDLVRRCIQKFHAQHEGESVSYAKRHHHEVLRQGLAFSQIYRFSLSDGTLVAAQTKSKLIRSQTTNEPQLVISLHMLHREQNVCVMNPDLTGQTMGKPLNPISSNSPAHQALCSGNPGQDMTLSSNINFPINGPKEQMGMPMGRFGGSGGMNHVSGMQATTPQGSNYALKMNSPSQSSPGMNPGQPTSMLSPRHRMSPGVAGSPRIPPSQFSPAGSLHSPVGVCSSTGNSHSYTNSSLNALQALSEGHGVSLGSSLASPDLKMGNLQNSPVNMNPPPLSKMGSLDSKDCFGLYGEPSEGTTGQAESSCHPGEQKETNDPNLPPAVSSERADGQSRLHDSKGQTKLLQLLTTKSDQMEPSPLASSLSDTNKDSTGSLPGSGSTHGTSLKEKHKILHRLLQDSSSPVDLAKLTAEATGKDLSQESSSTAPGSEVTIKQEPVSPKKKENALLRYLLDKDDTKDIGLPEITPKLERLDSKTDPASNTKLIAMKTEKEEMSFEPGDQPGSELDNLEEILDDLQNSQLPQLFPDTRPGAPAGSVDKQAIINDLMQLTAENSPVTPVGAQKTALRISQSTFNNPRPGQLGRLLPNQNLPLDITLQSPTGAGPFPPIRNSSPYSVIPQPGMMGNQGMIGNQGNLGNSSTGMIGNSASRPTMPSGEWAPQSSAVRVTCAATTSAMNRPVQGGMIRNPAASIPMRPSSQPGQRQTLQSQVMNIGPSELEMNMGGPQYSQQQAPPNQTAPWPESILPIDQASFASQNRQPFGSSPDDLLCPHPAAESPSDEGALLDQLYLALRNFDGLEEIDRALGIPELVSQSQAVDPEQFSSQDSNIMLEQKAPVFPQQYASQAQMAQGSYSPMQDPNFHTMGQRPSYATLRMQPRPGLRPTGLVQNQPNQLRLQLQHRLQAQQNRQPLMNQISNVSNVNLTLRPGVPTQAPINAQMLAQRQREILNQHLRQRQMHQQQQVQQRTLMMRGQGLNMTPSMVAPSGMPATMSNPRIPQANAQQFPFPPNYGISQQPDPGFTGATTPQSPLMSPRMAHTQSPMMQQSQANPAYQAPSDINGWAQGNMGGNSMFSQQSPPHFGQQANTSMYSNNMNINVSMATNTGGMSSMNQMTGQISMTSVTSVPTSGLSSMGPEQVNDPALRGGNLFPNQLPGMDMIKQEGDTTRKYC
# Peroxisome proliferator-activated receptor gamma/Nuclear receptor coactivator 3, sequence (P37231 whole entry): as the sequence (P37231 whole entry) above
# Peroxisome proliferator-activated receptor gamma/Nuclear receptor coactivator 3, sequence (Q9Y6Q9 whole entry, further chain): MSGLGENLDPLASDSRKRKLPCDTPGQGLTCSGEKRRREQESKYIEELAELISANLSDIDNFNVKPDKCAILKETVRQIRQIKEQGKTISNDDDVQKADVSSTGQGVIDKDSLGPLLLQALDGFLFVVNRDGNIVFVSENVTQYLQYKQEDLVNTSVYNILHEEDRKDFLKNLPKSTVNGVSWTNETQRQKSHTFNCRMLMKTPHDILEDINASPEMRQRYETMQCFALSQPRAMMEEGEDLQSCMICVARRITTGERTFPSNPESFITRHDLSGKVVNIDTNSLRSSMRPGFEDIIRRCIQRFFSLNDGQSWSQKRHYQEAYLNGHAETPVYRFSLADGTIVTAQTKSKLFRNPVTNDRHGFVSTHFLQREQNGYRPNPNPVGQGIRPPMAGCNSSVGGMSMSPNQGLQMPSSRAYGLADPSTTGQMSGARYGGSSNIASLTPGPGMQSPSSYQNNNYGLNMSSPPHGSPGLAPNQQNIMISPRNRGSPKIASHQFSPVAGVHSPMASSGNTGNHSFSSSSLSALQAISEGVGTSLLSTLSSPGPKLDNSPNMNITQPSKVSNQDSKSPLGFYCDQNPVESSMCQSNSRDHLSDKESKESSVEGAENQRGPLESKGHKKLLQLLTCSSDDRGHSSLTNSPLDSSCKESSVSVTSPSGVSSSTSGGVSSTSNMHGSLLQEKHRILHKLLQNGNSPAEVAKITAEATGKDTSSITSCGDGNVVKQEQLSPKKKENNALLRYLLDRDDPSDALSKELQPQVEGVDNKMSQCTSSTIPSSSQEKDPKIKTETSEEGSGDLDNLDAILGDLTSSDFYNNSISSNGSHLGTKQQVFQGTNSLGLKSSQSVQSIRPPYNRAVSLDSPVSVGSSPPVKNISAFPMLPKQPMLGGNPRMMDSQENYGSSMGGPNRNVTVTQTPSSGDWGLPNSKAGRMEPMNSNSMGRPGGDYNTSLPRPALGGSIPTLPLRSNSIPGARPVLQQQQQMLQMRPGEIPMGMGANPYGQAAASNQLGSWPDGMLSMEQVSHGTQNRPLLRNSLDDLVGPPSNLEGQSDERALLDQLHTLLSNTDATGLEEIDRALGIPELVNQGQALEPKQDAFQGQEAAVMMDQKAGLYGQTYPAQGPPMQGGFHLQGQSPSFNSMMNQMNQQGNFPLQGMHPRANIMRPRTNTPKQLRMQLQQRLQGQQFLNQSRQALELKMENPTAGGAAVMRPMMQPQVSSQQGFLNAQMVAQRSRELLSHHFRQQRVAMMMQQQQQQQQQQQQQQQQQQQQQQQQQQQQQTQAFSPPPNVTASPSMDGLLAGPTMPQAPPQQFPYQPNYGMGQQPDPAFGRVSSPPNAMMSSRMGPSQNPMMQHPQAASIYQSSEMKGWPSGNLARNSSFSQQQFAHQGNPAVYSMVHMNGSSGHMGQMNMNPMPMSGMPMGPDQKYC
compound,measurement,setting,value
CCOC(=O)c1sc(NC(=O)c2ccco2)nc1-c1ccccc1,EC50,[1],> 79.4 µM (not active)
same,EC50,[2],24.3 µM (inactive)
same,EC50,[3],14.2 µM (not active)
COc1ccccc1C(=O)N1CC2(C)CC1CC(C)(C)C2 (centres undefined),EC50,[4],> 50 µM (active)
COc1cc(Nc2c3c(nc4ccccc24)CCC3)cc(OC)c1OC,EC50,BJ [5],2.86 µM (active)
same,EC50,[6],2.38 µM (active)
same,EC50,BJ [7],42.7 µM (inconclusive)
same,EC50,BJ [8],18.5 µM (inconclusive)
CCc1nc2cc(CC(=O)O)ccc2o1,AC50,Cytochrome P450 2C19,inconclusive
same,AC50,Cytochrome P450 3A4,inconclusive
CC(=O)N1C(=O)/C(=C2\SC(=S)N(c3c(C)n(C)n(-c4ccccc4)c3=O)C2=O)c2ccccc21,IC50,[9],> 50 µM (not active)
same,IC50,[10],> 66 µM (inactive)
same,IC50,[11],> 66 µM (inactive)
same,IC50,Prothrombin,8.97 µM (active)
CCCC(=O)Nc1ccc2nn(-c3ccc(OC)cc3)nc2c1,EC50,Kallikrein-7,> 69.5 µM (inactive)
COC(=O)C1=C(C)N(CC2CC2)C(=O)N[C@H]1c1ccc(Br)cc1,AC50,[12],11.7 µM (active)
same,AC50,[13],14.7 µM (active)
same,EC50,[4],> 50 µM (active)
same,CC50,[14],35.1 µM (active)
same,AC50,[15],8.52 µM (active)
same,AC50,[16],7.14 µM (active)
COC(=O)Cc1c(C)c2c(O)cc(C)cc2oc1=O,EC50,[1],> 79.4 µM (not active)
same,EC50,[2],> 79.4 µM (inactive)
same,EC50,[3],> 79.4 µM (not active)
Oc1ccc(CNc2ccccc2)c2cccnc12,AC50,INS1,14.4 µM (active)
same,IC50,[9],> 50 µM (not active)
CCc1cc2c(CN3CCN(Cc4ccccc4)CC3)cc(=O)oc2cc1O,EC50,Kallikrein-7,> 69.5 µM (inactive)
CCCCc1cc(=O)oc2cc(C)cc(OCC(=O)N3CCC(C(=O)O)CC3)c12,EC50,Kallikrein-7,> 7.72 µM (active)
Cc1cc2nc(-c3ccc(SCc4ccccn4)nc3)[nH]c2cc1C,EC50,Kallikrein-7,12.9 µM (inactive)
